Here are results for 7 molecules from patent US20230111910A1, “PD-1/PD-L1 INHIBITOR, PREPARATION METHOD THEREFOR, AND USE THEREOF” (SHANGHAI SYNERGY PHARMACEUTICAL SCIENCES CO., LTD., priority 2020, published 2023).

Data set [1] has as its system mouse colon cancer MC38-hPD-L1. Description: In vivo efficacy in mice, MC38-hPD-L1 subcutaneous tumor model. Conditions: 50 mg/kg i.g., twice a day, MC38-hPD-L1 in C57BL/6 mice. An excerpt: Under sterile conditions, mouse colon cancer MC38-hPD-L1 in logarithmic growth phase was digested into single cells and then transplanted into the right back of C57BL/6 mice subcutaneously. Each mouse was inoculated with 1×10^6 cells in a volume of […] (μL). After inoculation, when the tumor grows to 100 cubic millimeters (mm^3), the mice were randomly divided into 9 groups, with 8 mice in each group, for drug efficacy experiments. The positive control was human programmed death receptor ligand (PD-L1) antibody. The negative control group was given the same amount of vehicle.
C57BL/6 mice, SPF grade, 6-8 weeks old, female, purchased from Beijing Vital River Laboratory Animal Technology Co., Ltd., license number SCXK […] 2017-0011, animal certificate number: 20170011003865.
An appropriate amount of compound was weighted, dissolved in 5% dimethyl sulfoxide (DMSO), subjected to vortex and sonication, added with 0.5% sodium carboxymethyl cellulose (CMC-Na), and sonicated, to prepare a solution of 5 mg per milliliter (mg/mL).

A short description of data set [2]: Pharmacokinetic experiment in rats, LC/MS/MS. Format: in vivo. Particulars: SD rats; for AUC: read-out: Area under the curve (AUC, ng/mL.h). As for the experimental part: Taking SD rats as an example, the drug concentrations in the plasma of rats at different times after i.g. and i.v. administration of compounds of Examples 1, 5, 6, 8, 12, 13, 15, 18, 19, 22, 25, 27 and 29, respectively, were determined by the liquid chromatography-tandem mass spectrometry (LS/MS/MS) method, and the relevant pharmacokinetic parameters were calculated to evaluate the pharmacokinetic properties of example compounds of the present invention in rats.
Healthy adult SD rats, SPF grade, male, purchased from Sippe-Bk Lab Animal Co., Ltd., Shanghai, license number SCXK (Shanghai) 2018-0006, animal certificate number: 20180006006321.
A certain amount of compound was weighed, dissolved in 5% dimethyl sulfoxide (DMSO), subjected to vortex and sonication, added with 0.5% sodium carboxymethyl cellulose (CMC-Na), and sonicated, to prepare a homogeneous solution.
Before administration and 5 min, 15 min, 0.5 h, 1 h, 2 h, 4 h, 6 h, 8 h and 24 h after administration, orbital blood was collected, 0.2 milliliters (mL) of blood being collected each time, and placed in an anticoagulant tube, mixed well, and stored in a −20° C. refrigerator for later use.
The content of the compound in rat whole blood was determined by liquid chromatography-tandem mass spectrometry (LS/MS/MS).
The pharmacokinetic parameters of the compounds after administration were calculated using the non-compartmental model of WinNonLin5.3 software.

The nature of data set [3]: Acute toxicity test in mice, single dose, 14 days observation. Format: in vivo. Conditions: both sexes, mouse, in vivo; ICR mice, single administration; read-out: median lethal dose (LD50). The method, then:
(§1) This experiment aims to test the toxic effects of the compounds in mice.
(§2) ICR mice, SPF grade, 6-8 weeks old, half male and half […], purchased from Sippe-Bk Lab Animal Co., Ltd., Shanghai, license number SCXK (Shanghai) 2018-0006, animal certificate number: 20180006010983.
(§3) ICR mice were administered different doses of compounds at a single time, and were continuously observed for 14 days. The animal death, poisoning reaction, body weight change, diet, appearance, behavior, etc. were recorded. At the end point, the animals were dissected, and the organs were taken for histopathological examination.

The test system of a further data set is ICR mice. Described as above. Format: in vivo. Particulars: within 14 days from administration. The method, then:
as §1, §2, §3

Structures can show the parent of a compound that is named as a salt. Where two headings read alike, the source gives them in different places.

As to `Cc1c(NC(=O)c2nc3c(n2C)CCN(C[C@H](C)O)C3)cncc1-c1cccc(NC(=O)c2nc3c(n2C)CCN(C2COC2)C3)c1Cl` [Example 23, (S)—N-(5-(2-chloro-3-(1-methyl-5-(oxetan-3-yl)-4,5,6,7-tetrahydro-1H-imidazo[4,5-c]pyridine-2-carboxamido)phenyl)-4-methylpyridin-3-yl)-5-(2-hydroxypropyl)-1-methyl-4,5,6,7-tetrahydro-1H-imidazo[4,5-c]pyridine-2-carboxamide], the “Tumor growth inhibition rate” value in data set [1] is 81%.
For the molecule `Cc1c(NC(=O)c2nc3c(n2C)CCN(CC(C)O)C3)cccc1-c1nccc(NC(=O)c2nc3c(n2C)CCN(C)C3)c1Cl` (stereo not shown) [Example 15], the “Tumor growth inhibition rate” value in data set [1] was 86%. For the same molecule, in data set [2] (i.v., 2 mg/kg), the “Area under the curve (AUC, ng/mL.h)” value came to 599.36 ng·h/mL and the “Half life (T1/2, h)” value was 1.76 h. Moreover, the “Bioavailability (F%)” value in data set [2] (p.o. 10 mg/kg vs i.v. 2 mg/kg) came out at 58%. Further, in data set [2] (p.o. (i.g.), 10 mg/kg), the “Area under the curve (AUC, ng/mL.h)” value was 1618.28 ng·h/mL and the “Blood concentration (Cmax, ng/mL)” value is reported as 377.6 ng/mL.
As usually defined, the LD50 is the dose at which mortality reaches 50%. On to `Cc1c(NC(=O)c2nc3c(s2)CN(C)CC3)cccc1-c1cccc(-c2nc3cc(CN4CC[C@@H](C(=O)O)C4)cnc3o2)c1C` [Example 4, (R)-1-(((2-(2,2′-dimethyl-3′-(5-methyl-4,5,6,7-tetrahydrothiazolo[5,4-c]pyridine-2-carboxamido))-[1,1′-biphenyl]-3-yl)oxazolo[5,4-b]pyridin-6-yl)methyl)pyrrolidine-3-carboxylic acid], for which the LD50 at 14 days in data set [3] is > 1000 mg/kg. Moreover, the “body weight and behavior compared with control group” value in the data set with ICR mice is “no abnormal body weight or behavior”. The “Tumor growth inhibition rate” value in data set [1] stood at 82%.
What is called bioavailability is the share of a dose that reaches the circulation, judged against a reference dose that is usually intravenous. As to `CCN1CCc2c(nc(C(=O)Nc3cncc(-c4cccc(NC(=O)c5nc6c(n5C)CCN(CC)C6)c4Cl)c3C)n2C)C1` [Example 27, N-(2-chloro-3-(5-(5-ethyl-1-methyl-4,5,6,7-tetrahydro-1H-imidazo[4,5-c]pyridine-2-carboxamido)-4-methylpyridin-3-yl)phenyl)-5-ethyl-1-methyl-4,5,6,7-tetrahydro-1H-imidazo[4,5-c]pyridine-2-carboxamide], in data set [1], the “Tumor growth inhibition rate” value is given as 80%. The AUC in data set [2] (male, rat, whole blood, iv, i.v., 2 mg/kg) turned out to be 637 ng·h/mL; in data set [2] (male, rat, whole blood, po, p.o. (i.g.), 10 mg/kg), 1460 ng·h/mL. For the same molecule, in data set [2] (male, rat, whole blood, iv, i.v., 2 mg/kg, read-out: Half life (T1/2, h) (converted)), the half-life was 2.26 h. In addition, the bioavailability in data set [2] (male, rat, whole blood, po, p.o. 10 mg/kg vs i.v. 2 mg/kg, read-out: Bioavailability (F%)) turned out to be 46%. For the same molecule, the Cmax in data set [2] (male, rat, whole blood, po, p.o. (i.g.), 10 mg/kg, read-out: Blood concentration (Cmax, ng/mL)) was 423 ng/mL.
As for `Cc1c(Nc2nccc3cc(CN4CC[C@@H](O)C4)cnc23)cccc1-c1cncc(-c2nc3cc(CN4CC[C@@H](C(=O)O)C4)cc(Cl)c3o2)c1C` [Example 11, (R)-1-(((7-chloro-2-(5-(3-((3-((((R)-3-hydroxypyrrolidin-1-yl)methyl)-1,7-naphthyridin-8-yl)amino)-2-methylphenyl)-4-methylpyridin-3-yl)benzo[d]oxazol-5-yl)methyl)pyrrolidine-3-carboxylic acid trifluoroacetate], in data set [3], the LD50 at 14 days was > 1000 mg/kg. The “body weight and behavior compared with control group” value in the data set with ICR mice is listed as “no abnormal body weight or behavior”. For the same molecule, the “Tumor growth inhibition rate” value in data set [1] worked out at 85%.
In the same order, the values of `Cc1c(NC(=O)c2nc3c(n2C)CCN(C[C@H](C)O)C3)cncc1-c1cccc(-c2nc3cc(CN4CC[C@@H](C(=O)O)C4)cc(Cl)c3o2)c1C` [Example 30, (R)-1-(((7-chloro-2-(3-(5-(5-((S)-2-hydroxypropyl))-1-methyl-4,5,6,7-tetrahydro-1H-imidazo[4,5-c]pyridine-2-carboxamido)-4-methylpyridin-3-yl)-2-methylphenyl)benzo[d]oxazole-5-yl)methyl)pyrrolidine-3-carboxylic acid] are > 1000 mg/kg, “no abnormal body weight or behavior” and 79%.
The like results for `Cc1c(NC(=O)c2nc3c(s2)CN(C)CC3)cccc1-c1cncc(-c2nc3cc(CN4CC[C@@H](C(=O)O)C4)cc(Cl)c3o2)c1C` [Example 9] were, in that order, > 1000 mg/kg, “no abnormal body weight or behavior” and 78%.
